From ChEMBL document CHEMBL1156142, “COX, LOX and platelet aggregation inhibitory properties of Lauraceae neolignans” (Bioorg Med Chem Lett, 2009)
pIC50: −log10 of the molar value.

Tests used:
[1] = Antiplatelet activity in rabbit platelets assessed as inhibition of adenosin 5'-diphosphate-induced platelet aggregation; assay type: functional, cell-based; conditions: Oryctolagus cuniculus
[2] = target: T1, Prostaglandin G/H synthase 1 (Ovis aries, UniProt P05979)
T1 sequence (P05979 whole entry): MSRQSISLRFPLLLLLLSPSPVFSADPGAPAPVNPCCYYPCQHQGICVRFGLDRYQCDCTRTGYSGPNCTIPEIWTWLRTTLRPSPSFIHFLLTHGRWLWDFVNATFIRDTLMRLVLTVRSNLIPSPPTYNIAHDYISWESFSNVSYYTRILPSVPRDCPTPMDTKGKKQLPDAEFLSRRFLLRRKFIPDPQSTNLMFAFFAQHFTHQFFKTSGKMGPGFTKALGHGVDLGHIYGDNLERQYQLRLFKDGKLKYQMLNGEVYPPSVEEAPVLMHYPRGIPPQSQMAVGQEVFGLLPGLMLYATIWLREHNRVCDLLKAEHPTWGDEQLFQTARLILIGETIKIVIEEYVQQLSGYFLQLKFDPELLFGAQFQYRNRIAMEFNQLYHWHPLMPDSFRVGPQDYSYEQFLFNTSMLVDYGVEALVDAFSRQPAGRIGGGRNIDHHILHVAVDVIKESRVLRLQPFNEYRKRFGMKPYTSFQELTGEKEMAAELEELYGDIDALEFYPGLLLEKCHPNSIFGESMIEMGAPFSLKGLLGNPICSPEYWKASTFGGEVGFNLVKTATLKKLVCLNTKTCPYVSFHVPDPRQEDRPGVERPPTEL
Description: Inhibition of ovine COX-1 assessed as inhibition of transformation of AA to PGH2 by EIA

[3] = Inhibition of potato LOX-5 assessed as inhibition of hydroperoxide production after 5 mins by EIA; set-up: species or system Solanum tuberosum
[4] = Antiplatelet activity in rabbit platelets assessed as inhibition of platelet activating factor-induced platelet aggregation; assay type: functional, cell-based, Oryctolagus cuniculus
[5] = Antiplatelet activity in rabbit platelets assessed as inhibition of arachidonic acid-induced platelet aggregation; assay type: functional, cell-based, Oryctolagus cuniculus
Ovis aries = species: Ovis aries; assay: Selectivity ratio of IC50 for ovine COX-1 to IC50 for ovine COX-2
[6] = Oryctolagus cuniculus, Platelet

SMILES	pIC50 [1]	pIC50 [2]	pIC50 [3]	pIC50 [4, 6]	pIC50 [5, 6]	Ratio IC50 (Ovis aries)	pIC50 ([4]; platelet)	pIC50 ([5]; platelet)
C=CCC1=C[C@@]2(OC)[C@H](C)[C@@H](c3cc(OC)c4c(c3)OCO4)[C@H](C1=O)[C@@H]2O [CINERIN B]	< 3.00	4.49	3.84	5.82	4.37			
C=CCC1=C[C@]2(OC)[C@@H](O)[C@@](OC)(C1=O)[C@@H](c1cc(OC)c(OC)c(OC)c1)[C@@H]2C (stereo in doubt; 9) [NECTAMAZIN B]		3.82	4.37				5.76	4.36
C=CCC1=C[C@@]2(OC)C(=CC1=O)O[C@H](c1ccc(OC)c(OC)c1)[C@H]2C [KADSURENONE]	4.42	4.59	6.98	6.82	5.25	12.6		
COc1cc(C=O)cc2c(C)c(-c3ccc4c(c3)OCO4)oc12 [OCOPHYLLALS A]	3.99	3.91	5.14	< 3.00	3.25	436		
C=CCC1=C[C@]2(OC)C(=O)C([C@@H]1O)[C@H](c1cc(OC)c(OC)c(OC)c1)[C@H]2C [MACROPHYLLIN B]	3.92	3.67	4.72	5.17	4.63			
C=CCC1=C[C@@]2(OC)[C@H](C)[C@@H](c3ccc(OC)c(OC)c3)[C@H](C1=O)[C@@H]2O [KADSURENIN C]	< 3.00	4.41	3.93	5.63	4.26			
C=CCC1=C[C@@]2(OC)[C@H](C)[C@@H](c3ccc(OC)c(OC)c3)[C@H](C1=O)[C@H]2O [OCOPHYLOL B]	3.14	4.02	3.72	5.52	4.41			
C=CCC1=C[C@@]2(OC)[C@@H](C)[C@H](c3cc(OC)c(OC)c(OC)c3)[C@](OC)([C@H]1O)[C@H]2O [NECTAMAZIN C]	< 3.00	4.13	4.89	5.42	4.67			
C/C=C/c1cc(OC)c2c(c1)[C@H](C)[C@@H](c1ccc3c(c1)OCO3)O2 [(-)-LICARIN B]	4.26	3.44	4.84	3.31	3.54	426		
CC(=O)Oc1ccccc1C(=O)O [ASPIRIN]	3.26		6.79	4.99	5.27			
C=CCC1=C[C@]2(OC)C(=CC1=O)O[C@@H](c1ccc(OC)c(OC)c1)[C@H]2C [(+)-DENUDATIN B]	3.83	4.05	6.70	4.12	4.23	15.6		
C=CCC1=C[C@@]2(OC)C(=CC1=O)O[C@H](c1cc(OC)c(OC)c(OC)c1)[C@H]2C [MIRANDIN A]		4.11	6.21	5.48	4.41			
O=C(O)/C=C/c1ccc(O)c(O)c1						3.74		
C=CCC1=C[C@@]2(OC)[C@H](C)[C@@H](c3ccc4c(c3)OCO4)[C@H](C1=O)[C@H]2O [OCOPHYLOL A]	3.20	4.05	3.59	5.51	4.34			
C/C=C/c1cc(OC)c2c(c1)[C@@H](C)[C@H](c1ccc(OC)c(OC)c1)O2 [ACUMINATIN]	4.12	3.65	5.11	4.19	3.65	146		

Continued, values first:

pIC50 [1]	pIC50 [2]	pIC50 [3]	pIC50 [4, 6]	pIC50 [5, 6]	Ratio IC50 (Ovis aries)	pIC50 ([4]; platelet)	pIC50 ([5]; platelet)	SMILES
3.78	3.61	5.43	< 3.00	3.25	12.5			C/C=C/c1cc(OC)c2c(c1)[C@@H](C)[C@H](c1ccc(O)c(OC)c1)O2 [LICARINE A]
3.91	3.75	5.74	4.74	3.84	10.2			C=CCc1cc2c(cc1O)O[C@H](c1ccc3c(c1)OCO3)[C@H]2C [LILIFLOL A]
< 3.00			6.03	4.12				C[C@@H]1C(=O)O[C@H]2[C@H](O)[C@@]34[C@H]5C[C@@H](C(C)(C)C)[C@]36[C@@H](OC(=O)[C@@H]6O)O[C@@]4(C(=O)O5)[C@@]12O [GINKOLIDE B]
< 3.00	4.14	3.75	5.63	4.31				C=CCC1=C[C@@]2(OC)[C@H](C)[C@@H](c3cc(OC)c(OC)c(OC)c3)[C@H](C1=O)[C@H]2O [OCOPHYLOL C]
3.95	3.51	5.01	< 3.00	3.31	35.5			C/C=C/c1cc(OC)c2c(c1)[C@H](C)[C@@H](c1ccc(O)c(OC)c1)O2 [LICARIN A]
< 3.00	4.14	3.81	5.86	4.16				C=CCC1=C[C@]2(OC)[C@@H](O)[C@@](OC)(C1=O)[C@@H](c1cc(OC)c(OC)c(OC)c1)[C@@H]2C (stereo in doubt; 8) [NECTAMAZIN B]
4.01	3.99	5.10	3.07	3.37	412			COc1cc(-c2oc3c(OC)cc(C=O)cc3c2C)cc(OC)c1OC [OCOPHYLLALS B]
		4.13						Cc1ccc(-c2cc(C(F)(F)F)nn2-c2ccc(S(N)(=O)=O)cc2)cc1 [CELECOXIB]
	3.73	5.05	5.18	4.59				C=CCC1=C[C@@]2(OC)C(=O)[C@](OC)([C@H](c3cc(OC)c4c(c3)OCO4)[C@H]2C)[C@H]1O [CINERIN D]
4.25	3.54	5.26	3.25	3.49	157			C/C=C/c1cc(OC)c2c(c1)[C@@H](C)[C@H](c1ccc3c(c1)OCO3)O2 [LICARINE B]
3.28	3.45	4.03	5.13	4.10				C=CCC1=C[C@]2(OC)C(=O)C(C1=O)[C@H](c1cc(OC)c(OC)c(OC)c1)[C@H]2C [4'-OXO-MACROPHYLLIN B]
< 3.00	4.55	3.87	5.96	4.07				C=CCC1=C[C@]2(OC)[C@H](C)[C@@H](c3cc(OC)c4c(c3)OCO4)[C@](OC)(C1=O)[C@H]2O [CINERIN C]
< 3.00	3.46	3.97	3.34	3.37	329			C=CCc1cc(OC)c2oc(-c3ccc4c(c3)OCO4)cc2c1 [NEOLIGNAN 9-NOR-7,8-DEHYDRO-ISOLICARIN B]
4.05	3.78	4.34		4.12				C=CCC1=C[C@]2(OC)C(=O)[C@@](OC)(C1=O)[C@H](c1cc(OC)c3c(c1)OCO3)[C@H]2C [CINERIN A]
